Row | SMILES | melting point
1 | CNc1ccc(-c2ccc(C(=O)Nc3ccc4c(c3)CCC(CN(C)C)C4)cc2)cc1 (stereo not shown) [Example 38, N-[6-[(N,N-Dimethylamino)methyl]-5,6,7,8-tetrahydro-2-naphthalenyl]-4′-(methylamino)[1,1′-biphenyl]-4-carboxamide] | 163 to 165 °C
2 | CN(C)CC1CCc2cc(NC(=O)c3ccc(-c4ccc(C(=O)O)cc4)cc3)ccc2C1 (stereo not shown) [Example 40, 4′-[[[6-[(N,N-Dimethylamino)methyl]-5,6,7,8-tetrahydro-2-naphthalenyl]amino]carbonyl][1,1′-biphenyl]-4-carboxylic acid] | 143 °C (dec.)
3 | CN(C)CC1=Cc2ccc(NC(=O)c3ccc(-c4ccc(Cl)cc4)cc3)cc2CC1 [Example 41, 4′-Chloro-N-[6-[(N,N-dimethyl)methyl]-7,8-dihydro-2-naphthalenyl][1,1′-biphenyl]-4-carboxamide] | 204 to 207 °C
4 | CN(C)CC1=Cc2ccc(NC(=O)c3ccc(-c4ccc(F)cc4)cc3)cc2CC1 [Example 42, 4′-Fluoro-N-[6-[(N,N-dimethylamino)methyl]-7,8-dihydro-2-naphthalenyl][1,1′-biphenyl]-4-carboxamide] | 190 to 193 °C
5 | CN(C)CC1CCCc2cc(NC(=O)c3ccc(-c4ccc(F)cc4)cc3)ccc2C1 (stereo not shown) [Example 45, 4′-Fluoro-N-[6-[(dimethylamino)methyl]-6,7,8,9-tetrahydro-5H-benzo[a]cyclohepten-2-yl][1,1′-biphenyl]-4-carboxamide] | 167 to 169 °C
6 | CN(C)CC1CCCc2cc(NC(=O)c3ccc(-c4ccc(Cl)cc4)cc3)ccc2C1 (stereo not shown) [Example 46] | 173 to 175 °C
7 | CN(C)CC1=Cc2ccc(NC(=O)c3ccc(-c4ccccc4Cl)cc3)cc2CC1 [Example 50, 2′-Chloro-N-[6-[(dimethylamino)methyl]-7,8-dihydro-2-naphthalenyl][1,1′-biphenyl]-4-carboxamide] | 145 to 147 °C
8 | O=C(Nc1ccc2c(c1)CCC(CN1CCCCC1)C2)c1ccc(-c2ccc(F)cc2)cc1 (stereo not shown) [Example 54, 4′-Fluoro-N-[6-(1-piperidinylmethyl)-5,6,7,8-tetrahydro-2-naphthalenyl][1,1′-biphenyl]-4-carboxamide] | 179 to 181 °C
9 | O=C(Nc1ccc2c(c1)CCC(CN1CCCCC1)C2)C1CC(=O)N(c2ccccc2)C1 (stereo not shown) [Example 56, 5-Oxo-1-phenyl-N-[6-(1-piperidinylmethyl)-5,6,7,8-tetrahydro-2-naphthalenyl]-3-pyrrolidinecarboxamide] | 162 to 164 °C
10 | Cc1ccc(-c2ccc(C(=O)Nc3ccc4c(c3)CCC(CN(C)C)=C4)cc2)cc1 [Example 85] | 195 to 196 °C
11 | O=C(Nc1ccc2c(c1)CCC(CN1CCCC1)=C2)c1ccc(-c2ccccc2)cc1 [Example 94, N-[6-(1-Pyrrolidinylmethyl)-7,8-dihydro-2-naphthalenyl][1,1′-biphenyl]-4-carboxamide] | 176 to 177 °C
12 | O=C(Nc1ccc2c(c1)CCC(CN1CCCC1)C2)c1ccc(-c2ccc(Cl)cc2)cc1 (stereo not shown) [Example 98, 4′-Chloro-N-[6-(1-pyrrolidinylmethyl)-5,6,7,8-tetrahydro-2-naphthalenyl][1,1′-biphenyl]-4-carboxamide] | 206 to 209 °C
13 | O=C(Nc1ccc2c(c1)CCC(CN1CCCC1)=C2)N1CCN(c2ccc(F)cc2)CC1 [Example 100, 4-(4-Fluorophenyl)-N-[6-(1-pyrrolidinylmethyl)-7,8-dihydro-2-naphthalenyl]-1-piperazinecarboxamide] | 179 to 181 °C
14 | CN(C)CC1COc2ccc(NC(=O)c3ccc(-c4ccccc4)cc3)cc2O1 (stereo not shown) [Example 104, N-[3-[(Dimethylamino)methyl]-2,3-dihydro-1,4-benzodioxin-6-yl][1,1′-biphenyl]-4-carboxamide] | 124 to 126 °C
15 | CN(C)CC1COc2cc(NC(=O)c3ccc(-c4ccc(Cl)cc4)cc3)ccc2O1 (stereo not shown) [Example 106, 4′-Chloro-N-[2-[(dimethylamino)methyl]-2,3-dihydro-1,4-benzodioxin-6-yl][1,1′-biphenyl]-4-carboxamide] | 215 to 217 °C
16 | CN(C)CC1COc2cc(NC(=O)c3ccc(-c4ccc(F)cc4F)cc3)ccc2O1 (stereo not shown) [Example 107, 2′,4′-Difluoro-N-[2-[(dimethylamino)methyl]-2,3-dihydro-1,4-benzodioxin-6-yl][1,1′-biphenyl]-4-carboxamide] | 209 to 210 °C
17 | O=C(Nc1ccc2c(c1)OCC(CN1CCCC1)O2)c1ccc(-c2ccc(Cl)cc2)nc1 (stereo not shown) [Example 108, 6=(4-Chlorophenyl)-N-[2-(1-pyrrolidinylmethyl)-2,3-dihydro-1,4-benzodioxin-6-yl]nicotinamide] | 218 to 220 °C
18 | CCC1=C(CN(C)C)CCc2cc(NC(=O)c3ccc(-c4ccc(Cl)cc4)cc3)ccc21 [Example 112, 4′-Chloro-N-[6-[(dimethylamino)methyl]-S-ethyl-7,8-dihydro-2-naphthalenyl][1,1′-biphenyl]-4-carboxamide] | 201 to 204 °C
19 | N#CC1=C(CN2CCCC2)CCc2cc(NC(=O)c3ccc(-c4ccccc4)cc3)ccc21 [Example 118, N-[5-Cyano-6-(1-pyrrolidinylmethyl)-7,8-dihydro-2-naphthalenyl][1,1′-biphenyl]-4-carboxamide] | 168 to 170 °C
20 | CN(C)CC1=Cc2ccc(NC(=O)CNC(=O)c3ccc(Cl)cc3)cc2CC1 [Example 126, 4-Chloro-N-[2-[[6-[(dimethylamino)methyl]-7,8-dihydro-2-naphthalenyl]amino]-2-oxoethyl]benzamide] | 168 to 171 °C
21 | CN(C)CC1=Cc2ncc(NC(=O)c3ccc(-c4ccc(Cl)cc4)cc3)cc2CC1 [Example 134, 4′-Chloro-N-[7-[(dimethylamino)methyl]-5,6-dihydro-3-quinolinyl][1,1′-biphenyl]-4-carboxamide] | 220 to 222 °C
22 | COc1ccc(-c2ccc(C(=O)Nc3ccc4c(c3)OCC(CN3CCCC3)=C4)cn2)cc1 [Example 141, 6-(4-Methoxyphenyl)-N-[3-(1-pyrrolidinylmethyl)-2H-chromen-7-yl]nicotinamide] | 243 to 245 °C

Results, then the compound that gave them:

Row | melting point | SMILES
23 | 192 to 194 °C | CN(C)CC1Cc2ccc(NC(=O)c3ccc(-c4ccc(Cl)cc4)cc3)cc2C1 (stereo not shown) [Example 43, 4′-Chloro-N-[2-[(dimethylamino)methyl]-2,3-dihydro-1H-inden-5-yl][1,1′-biphenyl]-4-carboxamide]
24 | 173 to 175 °C | CN(C)CC1=Cc2ccc(NC(=O)c3ccc(-c4ccccc4)cc3)cc2CC1 [Example 47, N-[6-[(Dimethylamino)methyl]-7,8-dihydro-2-naphthalenyl][1,1′-biphenyl]-4-carboxamide]
25 | 169 to 170 °C | O=C(Nc1ccc2c(c1)CCC(CN1CCCC1)=C2)c1ccc(-c2ccc(F)cc2F)nc1 [Example 87, 6-(2,4-Difluorophenyl)-N-[6-[(1-pyrrolidinyl)methyl]-7,8-dihydro-2-naphthalenyl]nicotinamide]
26 | 189 to 192 °C | O=C(Nc1ccc2c(c1)CCC(CN1CCCC1)=C2)c1ccc(-c2ccc(F)cc2)cc1 [Example 95, 4′-Fluoro-N-[6-(1-pyrrolidinylmethyl)-7,8-dihydro-2-naphthalenyl][1,1′-biphenyl]-4-carboxamide]
27 | 144 to 146 °C | O=C(Nc1ccc2c(c1)CCC(CN1CCCC1)C2)c1ccc(-c2ccccc2)cc1 (stereo not shown) [Example 96, N-[6-(1-Pyrrolidinylmethyl)-5,6,7,8-tetrahydro-2-naphthalenyl][1,1′-biphenyl]-4-carboxamide]
28 | 185 to 189 °C | O=C(Nc1ccc2c(c1)CCC(CN1CCCC1)C2)c1ccc(-c2ccc(F)cc2)cc1 (stereo not shown) [Example 97, 4′-Fluoro-N-[6-(1-pyrrolidinylmethyl)-5,6,7,8-tetrahydro-2-naphthalenyl][1,1′-biphenyl]-4-carboxamide]
29 | 175 to 179 °C | CN(C)CC1=Cc2ccc(C(=O)Nc3ccc(Br)cc3)cc2CC1 [Example 101, N-(4-Bromophenyl)-6-[(dimethylamino)methyl]-7,8-dihydro-2-naphthalenecarboxamide]
30 | 165 to 167 °C | O=C(Nc1ccc2c(c1)CCC(CN1CCCC1)=C2)c1ccc(-c2ccc(F)cc2F)cc1 [Example 103, 2′,4′-Difluoro-N-[6-(1-pyrrolidinylmethyl)-7,8-dihydro-2-naphthalenyl][1,1′-biphenyl]-4-carboxamide]
31 | 199 to 204 °C | CC1=C(CN(C)C)CCc2cc(NC(=O)c3ccc(-c4ccc(Cl)cc4)cc3)ccc21 [Example 111, 4′-Chloro-N-[6-[(dimethylamino)methyl]-5-methyl-7,8-dihydro-2-naphthalenyl][1,1′-biphenyl]-4-carboxamide]
32 | 159 to 162 °C | CC(C)CC1=C(CN(C)C)CCc2cc(NC(=O)c3ccc(-c4ccc(Cl)cc4)cc3)ccc21 [Example 113, 4′-Chloro-N-(6-[(dimethylamino)methyl)-5-isobutyl-7,8-dihydro-2-naphthalenyl][1,1′-biphenyl]-4-carboxamide]
33 | 165 to 167 °C | COc1ccc(-c2ccc(C(=O)Nc3ccc4c(c3)CCC(CN3CCCC3)=C4C)cn2)cc1 [Example 116, 6-(4-Methoxyphenyl)-N-[5-methyl-6-(1-pyrrolidinylmethyl)-7,8-dihydro-2-naphthalenyl]nicotinamide]
34 | 191 to 192 °C | N#CC1=C(CN2CCCC2)CCc2cc(NC(=O)c3ccc(-c4ccc(Cl)cc4)cc3)ccc21 [Example 117, 4′-Chloro-N-[5-cyano-6-(1-pyrrolidinylmethyl)-7,8-dihydro-2-naphthalenyl][1,1′-biphenyl]-4-carboxamide]
35 | 145 to 148 °C | CN(C)CC1CCc2cc(NC(=O)c3cccc(-c4ccccc4)c3)ccc2C1 (stereo not shown) [Example 120, N-[6-[(Dimethylamino)methyl]-5,6,7,8-tetrahydro-2-naphthalenyl][1,1′-biphenyl]-3-carboxamide]
36 | 190 to 192 °C | CN(C)CC1CCc2cc(NC(=O)c3cc4ccccc4[nH]3)ccc2C1 (stereo not shown) [Example 122]
37 | 202 to 203 °C | CN(C)CC1=Cc2ncc(NC(=O)c3ccc(-c4ccccc4)cc3)cc2CC1 [Example 133, N-[7-[(Dimethylamino)methyl]-5,6-dihydro-3-quinolinyl][1,1′-biphenyl]-4-carboxamide]

— US7115750B1, “Melanin concentrating hormone antagonist” (Takeda Pharmaceutical Company Limited, priority 1999, dated 2006)
